The values that follow come from US4056625A, “Pesticidal compositions containing benzodioxole derivatives and methods of combating pests” (priority 1972, dated 1977).

Values after ≈ are worked out from the molar mass of the structure shown.

Data set [1] has as its system adult female houseflies (Musca domestica). Description: Housefly mortality on treated filter papers (Examples 32-40). Type of data set: in vivo. The note with it: 100 milligrams per square foot, after 24 hours. An excerpt: 9 centimeter diameter filter papers treated with aqueous acetone solutions of each of the compounds
at rates equivalent to 100 milligrams per square foot (100 mgm./0.09 m^2.) of active ingredient were placed in 9 centimeter diameter Petri dishes. Batches of adult female houseflies (Musca domestica) lightly anaesthetised with carbon dioxide were then introduced into the dishes and a glass lid placed over each.

Data set [2] in a line: Acute oral LD50 to mice (Example 76). Details: species or system mouse (Carshalton CFW strain). The note with it: in vivo, mouse, by stomach tube in 0.4% tragacanth, up to 5 days. Here is the method:
(§1) Mammalian toxicity was assessed by measuring the acute oral LD50 to rats and mice. Componds were dissolved or suspended in a 0.4% tragacanth solution and administered by stomach tube to the test animal. The mice used were 10 to 15 g weanlings of the Carshalton CFW strain whilst the rats were 30 to 40 g weanlings of Wystar strain. Three replicates per dosage rate were employed and the mortality was recorded daily for up to 5 days. The LD50 values were calculated as for those for insecticidal and acaricidal activity above.

Data set [3] concerns rats and mice. Description: Mammalian toxicity (overall comparison). The class given is in vivo. Particulars: compared with compound 5. The procedure: as §1
The test system of data set [4] is adult red spider mites (Tetranychus telarius). Description: LC50 against adult red spider mites on sprayed French beans (Example 73). Type of data set: in vivo. The note with it: 48 h, read-out: LC50 value. Here is the method:
(§2) If complete kill was obtained at the highest dosage rate, the test was repeated using a logarithmically reducing dose regime until less than 50% mortality was recorded. The LC50 was then calculated from the line of best fit from the data plotted on log/provit analysis paper.
(§3) Similarly LC50 values were obtained against various pests as described in Examples 70-73 where, however, the LC50 values are abbreviated on a 0-6 scale where
Similarly, LC50 values were obtained for each of Compounds 1, 2, 4, 5 and 6 against adult red spider mites (Tetranychus telarius), of the order Acarina. The tests were carried out by spraying infected French beans with a 50% acetone water solution of the compound, containing 500 ppm of Lissapol NX as a wetting agent, and recording the mortality after 48 hours. The highest dosage rate employed was 1000 ppm which is equivalent to 10 lb/acre (11.20 kg/ha).

Data set [5] deals with larvae of the sheep maggot fly (Lucilia sericata). Description: LC50 against sheep maggot fly larvae on dental rolls (Example 71). Type of data set: in vivo. Particulars: for LC50: Lucilia sericata, 24 h, read-out: LC50 value; for activity against sheep maggot fly (in words): compared with compound 5. Here is the method: as §2, §3
Similarly, LC50 values were obtained for each of Compounds 1, 2, 3, 4, 5 and 6 against larvae of the sheep maggot fly (Lucilia sericata), of the order Diptera. The tests were carried out by placing newly hatched larvae on dental rolls contained in glass vials and soaked with 1 ml of blood serum containing the compound. The mortality was assessed after 24 hours. The highest dosage rate employed was 1000 ppm.

The nature of data set [6]: Acute oral LD50 to rats (Example 76). Type of data set: in vivo, rat (Wystar strain). Particulars: in vivo, po; rat male, by stomach tube in 0.4% tragacanth, up to 5 days. The procedure: as §1
Data set [7] concerns rats. Briefly: Acute oral LD50 to rats (Example 76). Type of data set: in vivo, rat (Wystar strain). The note with it: rat female, by stomach tube in 0.4% tragacanth, up to 5 days. Here is the method:
as §1

For data set [8], the system named is yellow fever mosquito (Aedes aegypti). Description: Persistency against yellow fever mosquito on treated glass plates (Example 75). The class given is in vivo. The note with it: 100 mg/ft^2 (1.065 g/m^2), adult female mosquitos, 7 day intervals until less than 50% mortality. Here is the method: Persistency was measured against yellow fever mosquito (Aedes aegypti), of the order Diptera, by treating glass plates with acetone solutions of the compounds listed below to produce a deposit equivalent to 100 mg/ft^2 (1.065 g/m^2), and caging adult female mosquitos on these surfaces for 24 hours at 7 day intervals until less than 50% mortality was recorded.

The test system of data set [9] is adult female houseflies (Musca domestica). Description: LC50 against adult female houseflies on filter papers (Example 70). The class given is in vivo. Particulars: for LC50 value: adult female houseflies, 24 hours, 0-6 scale (mg/ft^2); for activity against houseflies (in words): compared with compound 5. The procedure:
as §2, §3
LC50 values were obtained for each of Compounds 1, 2, 3, 4, 5 and 6 against adult female houseflies (Musca domestica), of the order Diptera. The tests were carried out by adding acetone solutions of the compounds to 9 cm diameter filter papers in the base of 9 cm diameter crystallising dishes, placing the houseflies in the dishes after the acetone had evaporated, closing the dishes with Petri dish lids and counting the mortality after 24 hours. The highest dosage rate employed was 1000 mg/ft^2 (10.65 g/m^2).

Data set [10] in a line: Solubility. Type of data set: physicochemical. The note with it: compared with compound 5.
In data set [11] the test system is larvae of the cattle tick (Boophilus microplus). Description: LC50 against cattle tick larvae (Example 72). The note with it: Rhipicephalus microplus, 24 hours, 0-6 scale (ppm). The class given is in vivo. The procedure: as §2, §3
Similarly, LC50 values were obtained for each of Compounds 2 and 4 against larvae of the cattle tick (Boophilus microplus), of the order Acarina. The tests were carried out evaporating 1 ml of an acetone solution of the compound on 9 cm diameter filter papers, folding the papers twice in half after drying to give quadrant shaped packets and sealing the tick larvae therein for 24 hours by means of a paper clip. The highest dosage rate employed was 1000 ppm.

The subject of data set [12] is sheep maggot fly (Lucila sericata). Briefly: Persistency on sheep against sheep maggot fly. The class given is in vivo. Particulars: compared with compound 5.
Data set [13] has as its system 2nd stage nymph of the German cockroach (Blattella germanica). Description: LC50 against German cockroach nymphs in treated glass tubes (Example 69). Type of data set: in vivo. Particulars: for LC50 value: 2nd stage nymph German cockroach, 48 hours, 0-6 scale. The procedure:
Compounds 2 and 4 and also 2,2-dimethyl-1,3- benzodioxol-4-yl N-methylcarbamate(compound 5) and 2,2-dimethyl-1,3-benzodioxol-4-yl N-acetyl-N-methylcarbamate (compound 6) were tested for activity against the 2nd stage nymph of the German cockroach (Blattella germanica), of the order Orthoptera, by treating the walls of glass tubes (9.0 cm high × 4.5 cm diameter) with acetone solutions of the compounds and after the acetone had evaporated caging the insects in the tubes for 48 hours. The highest dosage rate employed was 50 mg/ft^2 (532 mg/m^2).
as §2
The LC50 values are abbreviated on a 0-6 scale where

In data set [14] the test system is German cockroaches (Blattella germanica). Description: Persistency against German cockroaches on treated glass plates (Example 74). The note with it: 100 mg/ft^2 (1.065 g/m^2), 2nd stage nymphs, 7 day intervals until less than 50% mortality. The class given is in vivo. The procedure: Persistency was measured against German cockroaches (Blattella germanica), or the order Orthoptera, by treating glass plates with acetone solutions of the compunds listed below to produce a deposit equivalent to 100 mg/ft^2 (1.065 g/m^2), and caging 2nd stage nymph cockroaches on these surfaces for 48 hours at 7 day intervals until less than 50% mortality was recorded.

`CC(=O)N(C)C(=O)Oc1cccc2c1OCO2` [Compound 1, 1,3-benzodioxol-4-yl N-acetyl-N-methylcarbamate]: the mortality of houseflies entry in [1] is reported as “all found to be dead”. For the same molecule, the LD50 at 120 h is greater than 4000 mg/kg in [2] and greater than 1000 mg/kg in data set [6]. The “mammalian toxicity (in words)” value in [3] is on record as “lower mammalian toxicity than does compound 5”. Besides, the LC50 lay in the range of 100 to 299 µg/mL (≈ 422 to 1260 µM) in [4] and 30 to 99 µg/mL (≈ 126 to 417 µM) in data set [5]. For the same molecule, the “Acute oral LD50, rat female” value in data set [7] is given as greater than 1000 mg/kg body wt. Further, the Persistency in [8] was 35 days. Also, the LC50 value in data set [9] is 5 (3-9 mg/ft^2 (32-106 mg/m^2)). For the same molecule, in [9], the “activity against houseflies (in words)” value was “as good or better activity against houseflies than does compound 5”. The “solubility in organic solvents (in words)” value (from here on “solubility”) in [10] is “higher solubility in organic solvents than is compound 5”.

`CCC(=O)N(C)C(=O)Oc1cccc2c1OC(C)(C)O2` [Compound 2, 2,2-dimethyl-1,3-benzodioxol-4-yl N-propionyl-N-methylcarbamate] returned an LC50 in [11] of 3 to 9 µg/mL (≈ 10.7 to 32.2 µM). Besides, in data set [12], the “persistency on sheep against sheep maggot fly (in words)” value is listed as “much better persistency on sheep”. In data set [2], this molecule showed a 50% lethal dose (LD50) at 120 h of 280 mg/kg. Also, the “mammalian toxicity (in words)” value in [3] was “lower mammalian toxicity than does compound 5”. Moreover, the LC50 in data set [4] lay within 300 to 1000 µg/mL (≈ 1070 to 3580 µM). In [13], the LC50 value is 6 (<0.5 mg/ft^2 (<5.3 mg/m^2)) and the “activity against cockroaches (in words)” value was “outstandingly good activity against cockroaches”. In addition, in data set [5], the LC50 was in the range of 3 to 9 µg/mL (≈ 10.7 to 32.2 µM) and the “activity against sheep maggot fly (in words)” value was “as active as compound 5 against sheep maggot fly”. Besides, in [9], the LC50 value was 5 (3-9 mg/ft^2 (32-106 mg/m^2)) and the “activity against houseflies (in words)” value is recorded as “as good or better activity against houseflies than does compound 5”. In addition, the Persistency in data set [14] lay in the range of 21 to 28 days. In addition, in [10], the “solubility” value is “higher solubility in organic solvents than is compound 5”.

For `CCCC(=O)N(C)C(=O)Oc1cccc2c1OC(C)(C)O2` [Compound 3, 2,2-dimethyl-1,3-benzodioxol-4-yl N-butyryl-N-methylcarbamate], the mortality of houseflies result in data set [1] is “all found to be dead”. Also, the LD50 at 120 h in data set [2] was 2000 mg/kg. In addition, the “mammalian toxicity (in words)” value in [3] is “lower mammalian toxicity than does compound 5”. Moreover, in data set [5], the LC50 lay in the range of 3 to 9 µg/mL (≈ 10.2 to 30.7 µM) and the “activity against sheep maggot fly (in words)” value was “as active as compound 5 against sheep maggot fly”. This molecule showed an LD50 at 120 h in data set [6] greater than 1000 mg/kg. Moreover, in [7], the “Acute oral LD50, rat female” value is greater than 1000 mg/kg body wt. Moreover, in [9], the LC50 value is on record as 4 (10-29 mg/ft^2 (107-310 mg/m^2)) and the “activity against houseflies (in words)” value is “as good or better activity against houseflies than does compound 5”. The “solubility” value in data set [10] is on record as “higher solubility in organic solvents than is compound 5”.

On to `CCCCC(=O)N(C)C(=O)Oc1cccc2c1OC(C)(C)O2` [Compound 4, 2,2-dimethyl-1,3-benzodioxol-4-yl N-pentanoyl-N-methylcarbamate], for which the LC50 in [11] lay within 30 to 99 µg/mL (≈ 97.6 to 322 µM); in [4], 300 to 1000 µg/mL (≈ 976 to 3250 µM); in data set [5], 30 to 99 µg/mL (≈ 97.6 to 322 µM). Further, the “persistency on sheep against sheep maggot fly (in words)” value in [12] is “much better persistency on sheep”. For the same molecule, in data set [2], the LD50 at 120 h was 170 mg/kg. In [3], the “mammalian toxicity (in words)” value is reported as “lower mammalian toxicity than does compound 5”. For the same molecule, the figures for the LC50 value in data set [13] and in data set [9] were 5 (0.15-0.5 mg/ft^2 (1.6-5.3 mg/m^2)) and 4 (10-29 mg/ft^2 (107-310 mg/m^2)), respectively. For the same molecule, the “activity against cockroaches (in words)” value in data set [13] is “outstandingly good activity against cockroaches”. In [9], the “activity against houseflies (in words)” value was “as good or better activity against houseflies than does compound 5”. Further, the Persistency in data set [14] is greater than 35 days. Moreover, in data set [10], the “solubility” value is listed as “higher solubility in organic solvents than is compound 5”.

In general, LD50 refers to the dose expected to kill half of the subjects tested. The low end stands for greater toxicity, the high end for lower toxicity. In general, LC50 refers to the concentration that kills 50% of the test population.
